Measurements as given in patent US20230348779A1, “FLUORESCENT COMPOUND AND FLUORESCENTLY LABELED BIOLOGICAL SUBSTANCE USING THE SAME” (FUJIFILM Corporation, priority 2021, published 2023).
Values after ≈ are worked out from the molar mass of the structure shown.

Legend:
Type in all cases: physicochemical
[1] = Evaluation of water solubility; conditions: PBS pH 7.4, 1% DMSO, 200 μM if completely dissolved, filtrate concentration by UHPLC; for solubility at 30 min: PBS pH 7.4 with 1% DMSO, aqueous buffer, kinetic from dmso stock
Protocol: 5 μL of a DMSO solution having a concentration of 20 mM of the above compound (hereinafter, referred to as a sample) and 495 μL of PBS having a pH of 7.4 were added and mixed in a 1.5 mL Eppendorf tube and stirred with a multi-shaker MS300 (product name, AS ONE Corporation) at 2,000 rpm for 30 minutes. The obtained mixed solution was allowed to be left for 60 minutes with light shielding and then subjected to centrifugal precipitation (12,000 rpm, 5 minutes). For the filtrate filtered using a filter having a pore diameter of […], the sample concentration was measured with Nexera UHPLC [product name, manufactured by Shimadzu Corporation, column: Shim-pack XR-ODSII] (the sample concentration is 200 μM in a case where the sample is completely dissolved) and evaluated based on the following evaluation standards.
Regarding the water solubility, a high evaluation rank is highly preferable since the hydrophilicity is high, and in the present test, it is preferable that the water solubility satisfies the evaluation rank “C” or higher from the viewpoint of practicality as the fluorescent compound.
—Evaluation Standards for Water Solubility— • A: 100 μM or more • B: 10 μM or more and less than 100 μM • C: 1 μM or more and less than 10 μM • D: Less than 1 μM, or water solubility is low and thus concentration cannot be measured.

[2] = Evaluation of fluorescence quantum yield; conditions: PBS solution (pH 7.4)
Protocol: A PBS solution (pH 7.4) of the above compound was evaluated according to the method described in the following reference document.
“A Guide to Recording Fluorescence Quantum Yields” (a HORIBA Scientific document, available from https://www.horiba.com/fileadmin/uploads/Scientific/Documents/Fluorescence/quantumyields trad.pdf)
Regarding the fluorescence quantum yield, a high evaluation rank is highly preferable since the fluorescence quantum yield is excellent, and in the present test, it is preferable that the fluorescence quantum yield satisfies the evaluation rank “C” or higher from the viewpoint of practicality as the fluorescent compound.
—Evaluation Standards for Fluorescence Quantum Yield— • A: 0.5 or more • B: 0.3 or more and less than 0.5 • C: 0.1 or more and less than 0.3 • D: less than 0.1 • E: not evaluable due to low water solubility

[3] = Evaluation of maximum molar absorption coefficient; conditions: PBS solution (pH 7.4)
Protocol: A PBS solution (pH 7.4) of the above compound was evaluated according to the method described in the following reference document. The unit of the maximum molar absorption coefficient in the following evaluation standard is mol^−1 Lcm^−1.
“TECH TIP #6 Extinction Coefficients” (a document from Thermo Scientific, Inc., available from https://assets.thermofisher.com/TFS-Assets/LSG/Application-Notes/TR0006-Extinction-coeffi cients.pdf)
Regarding the maximum molar absorption coefficient, a high evaluation rank is highly preferable since the maximum molar absorption coefficient is excellent, and in the present test, it is preferable that the maximum molar absorption coefficient satisfies the evaluation rank “C” or higher from the viewpoint of practicality as the fluorescent compound.
—Evaluation Standard for Maximum Molar Absorption Coefficient— • A: 100,000 or more • B: 50,000 or more and less than 100,000 • C: 10,000 or more and less than 50,000 • D: less than 10,000 • E: not evaluable due to low water solubility

[4] = Evaluation of light resistance; conditions: PBS pH 7.4, xenon lamp 22 mW/cm^2, exposure time until absorbance at absorption peak decreases by 20%
Protocol: The compound synthesized above was dissolved in a PBS solution (pH 7.4) so that the absorbance at the absorption peak wavelength was 0.095 to 0.105. In a state where this solution was exposed using a merry-go-round type light irradiator (xenon lamp UXL-500D-O manufactured by Ushio Inc., HA-50 filter, Y44 filter, exposure intensity: 22 mW/cm^2 (in terms of 500 nm)), the absorbance at the absorption peak wavelength of each compound was measured over time with a spectrometer (Agilent 8453, manufactured by Agilent Technologies, Inc.). The absorbance at the absorption peak wavelength before light exposure was set to 100% and the light exposure time until the absorbance at this absorption peak wavelength decreases by 20% (the absorbance at the absorption peak wavelength reaches 80%) was measured. The results were evaluated based on the following evaluation standards.
A high evaluation rank is highly preferable since stability is kept for a long time, and in the present test, it is preferable that the light resistance satisfies the evaluation rank “B” or higher from the viewpoint of practicality as the fluorescent compound.
—Evaluation Standards for Light Resistance— • A: 100 hours or more • B: 50 hours or more and less than 100 hours • C: 25 hours or more and less than 50 hours • D: 2 hours or more and less than 25 hours • E: Less than 2 hours • F: Not evaluable due to low water solubility

Molecule	solubility at 30 min [1]	Fluorescence quantum yield [2]	Maximum molar absorption coefficient [3]	Light resistance [4]	Fluorescence quantum yield (comparison in words) [2]	Water solubility [1]
C=C[Si]1(C)C2=CC(=[N+](C)C)C=CC2=C(c2ccc(C(=O)[O-])cc2F)c2ccc(N(C)C)cc21 (stereo not shown) [Compound (2)]	1 to 10 µM (≈ 0.459 to 4.59 µg/mL)	B (0.3 or more and less than 0.5)	A (100,000 or more)	A (100 hours or more)		
C=C[Si]1(C)C2=CC(=[N+](C)C)C=CC2=C(c2c(OC)cc(C(=O)[O-])cc2OC)c2ccc(N(C)C)cc21 (stereo not shown) [Compound (4)]	1 to 10 µM (≈ 0.501 to 5.01 µg/mL)	B (0.3 or more and less than 0.5)	A (100,000 or more)	A (100 hours or more)		
C=C[Si]1(C)C2=CC(=[N+](C)C)C=CC2=C(c2sc(C(=O)[O-])cc2C)c2ccc(N(C)C)cc21 (stereo not shown) [Compound (5)]	1 to 10 µM (≈ 0.461 to 4.61 µg/mL)	D (less than 0.1)	A (100,000 or more)	A (100 hours or more)		
C=C[Si]1(C)C2=CC(=[N+]3CCS(=O)(=O)CC3)C=CC2=C(c2c(F)cc(C(=O)[O-])cc2F)c2ccc(N3CCS(=O)(=O)CC3)cc21 (stereo not shown) [Compound (6)]	1 to 10 µM (≈ 0.657 to 6.57 µg/mL)	B (0.3 or more and less than 0.5)	A (100,000 or more)	A (100 hours or more)	exhibits a better fluorescence quantum yield as compared with the compound (1)	
C=C[Si]1(C)C2=C/C(=N/C)C=CC2=C(c2c(F)cc(C(=O)O)cc2F)c2ccc(NC)cc21 (stereo not shown) [Compound (7)]	1 to 10 µM (≈ 0.449 to 4.49 µg/mL)	B (0.3 or more and less than 0.5)	A (100,000 or more)	A (100 hours or more)		
C=C[Si]1(C)C2=C/C(=N/C)C=CC2=C(c2sc(C(=O)O)cc2C)c2ccc(NC)cc21 (stereo not shown) [Compound (8)]	1 to 10 µM (≈ 0.433 to 4.33 µg/mL)	C (0.1 or more and less than 0.3)	B (50,000 or more and less than 100,000)	A (100 hours or more)		
C=C[Si]1(C)C2=C/C(=N/C)C=CC2=C(c2c(F)cc(C(=O)NCCOCCOCCOCCOCCC(=O)O)cc2F)c2ccc(NC)cc21 (stereo not shown) [Compound (9)]	10 to 100 µM (≈ 6.96 to 69.6 µg/mL)	B (0.3 or more and less than 0.5)	A (100,000 or more)	A (100 hours or more)		
C=C[Si]1(C)C2=CC(=[N+]3CC(F)C3)C=CC2=C(c2c(OC)cc(C(=O)[O-])cc2OC)c2ccc(N3CC(F)C3)cc21 (stereo not shown) [Compound (13)]	1 to 10 µM (≈ 0.561 to 5.61 µg/mL)	A (0.5 or more)	B (50,000 or more and less than 100,000)			
C=C[Si]1(C)C2=C/C(=[N+]3\CCC(F)C3)C=CC2=C(c2c(OC)cc(C(=O)[O-])cc2OC)c2ccc(N3CCC(F)C3)cc21 (stereo not shown) [Compound (14)]	1 to 10 µM (≈ 0.589 to 5.89 µg/mL)	A (0.5 or more)	B (50,000 or more and less than 100,000)			
C=C[Si]1(C)C2=C/C(=[N+](\C)CC(F)(F)F)C=CC2=C(c2c(OC)cc(C(=O)[O-])cc2OC)c2ccc(N(C)CC(F)(F)F)cc21 (stereo not shown) [Compound (15)]	1 to 10 µM (≈ 0.637 to 6.37 µg/mL)	A (0.5 or more)	C (10,000 or more and less than 50,000)		exhibits a better fluorescence quantum yield as compared with the compound (4)	
AlexaFluor647		B (0.3 or more and less than 0.5)	A (100,000 or more)	D (2 hours or more and less than 25 hours)		A (100 μM or more)
